Reference: ChEMBL document CHEMBL6115017, “Discovery of DFV890, a Potent Sulfonimidamide-Containing NLRP3 Inflammasome Inhibitor” (J Med Chem, 2025)
Calls of active or inactive are those of the source. The calls are words filed in the database; no cut-off is given here.

Experiments:
[1] = Cmax in Cynomolgus monkey at 5 mg/kg, po by LC-MS analysis; assay type: ADME, organism-based, Macaca fascicularis; conditions: in vivo
[2] = biological target: T1, Cytochrome P450 1A2 (Homo sapiens, UniProt P05177); experiment: Inhibition of CYP1A2 (unknown origin); assay type: ADME
T1 sequence (P05177 whole entry): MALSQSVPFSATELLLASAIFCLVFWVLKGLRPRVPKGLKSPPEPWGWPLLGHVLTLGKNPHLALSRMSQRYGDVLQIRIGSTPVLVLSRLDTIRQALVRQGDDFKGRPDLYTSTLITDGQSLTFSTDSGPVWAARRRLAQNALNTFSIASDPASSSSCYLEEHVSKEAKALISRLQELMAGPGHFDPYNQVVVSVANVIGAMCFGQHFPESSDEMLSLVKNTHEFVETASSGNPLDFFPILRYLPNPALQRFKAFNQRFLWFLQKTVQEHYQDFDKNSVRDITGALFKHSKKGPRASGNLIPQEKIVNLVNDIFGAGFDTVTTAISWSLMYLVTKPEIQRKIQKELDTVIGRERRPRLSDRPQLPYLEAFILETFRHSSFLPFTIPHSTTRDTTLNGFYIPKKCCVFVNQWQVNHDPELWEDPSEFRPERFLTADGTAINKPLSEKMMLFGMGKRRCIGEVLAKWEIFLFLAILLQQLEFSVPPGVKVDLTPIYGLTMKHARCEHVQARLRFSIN

[3] = biological target: T2, Cytochrome P450 3A4 (Homo sapiens, UniProt P08684); experiment: Inhibition of CYP3A4 (unknown origin); assay type: ADME
[4] = Metabolic stability in human hepatocytes assessed as intrinsic clearance measured per 10^6 cells; assay type: ADME, cell-based, Hepatocyte; conditions: read-out: CLH
[5] = Oral bioavailability in Cynomolgus monkey at 5 mg/kg administrated through oral gavage and 2 mg/kg, iv by LC-MS analysis; assay type: ADME, organism-based, Macaca fascicularis; conditions: in vivo
[6] = Fraction unbound in Beagle dog […] plasma; assay type: ADME, cell-free, Canis lupus familiaris
[7] = biological target: Cytochrome P450 2C19 (Homo sapiens, UniProt P33261); experiment: Inhibition of CYP2C19 (unknown origin) by time dependent inhibition assay; assay type: ADME
[8] = Apparent permeability of the compound across apical to basolateral side in MDCK; assay type: ADME, cell-based, Canis lupus familiaris; conditions: dog
[9] = In vivo inhibition of NLRP3 dependent cytokine production in po dosed LPS-challenged C57BL/6 mouse model assessed as inhibition of LPS-induced IL-1beta production in blood by measuring plasma compound concentration by enhanced flex bead assay; assay type: functional, organism-based
[10] = Cmax in Sprague-Dawley rat at 5 mg/kg, po by LC-MS analysis; assay type: ADME, organism-based; conditions: in vivo
[11] = biological target: T2, Cytochrome P450 3A4; experiment: Inhibition of CYP3A4 (unknown origin) by time dependent inhibition assay; assay type: ADME
[12] = Metabolic stability in rat hepatocytes assessed as intrinsic clearance measured per 10^6 cells; assay type: ADME, cell-based, Hepatocyte; conditions: read-out: CLH
[13] = AUC (infinity) in C57 BL6 mouse at 10 mg/kg, po by LC-MS analysis; assay type: ADME, organism-based; conditions: in vivo
[14] = Half life in Cynomolgus monkey at 5 mg/kg, po and 2 mg/kg, iv by LC-MS analysis; assay type: ADME, organism-based, Macaca fascicularis; conditions: in vivo
[15] = test system: Mus musculus; experiment: In vivo inhibition of NLRP3 dependent cytokine production in po dosed LPS-challenged C57BL/6 mouse model assessed as inhibition of LPS-induced TNFalpha production in blood pretreated for 1 hr followed by induced with LPS measured after 5 hrs by cytokine bead assay; assay type: functional, organism-based; conditions: time 6.0 hrs
[16] = test system: Macrophage; experiment: Inhibition of pyrin inflammasome activation in immortalized NLRP3-KO mouse macrophages assessed as inhibition of TcdB-induced IL-1beta release pretreated for 1 hr followed by induced with TcdB measured after 6 hrs by HTRF analysis; assay type: cell-based; conditions: time 7.0 hrs
[17] = Fraction unbound in Cynomolgus monkey plasma; assay type: ADME, cell-free, Macaca fascicularis
[18] = Oral bioavailability in Beagle dog at 2 mg/kg administrated through oral gavage by LC-MS analysis; assay type: ADME, organism-based, Canis lupus familiaris; conditions: in vivo
[19] = biological target: T3, PXR (Homo sapiens, UniProt O75469); experiment: Activation of PXR (unknown origin) assessed as activation at 30 uM relative to control; assay type: toxicity; conditions: read-out: Activity
T3 sequence (O75469 whole entry): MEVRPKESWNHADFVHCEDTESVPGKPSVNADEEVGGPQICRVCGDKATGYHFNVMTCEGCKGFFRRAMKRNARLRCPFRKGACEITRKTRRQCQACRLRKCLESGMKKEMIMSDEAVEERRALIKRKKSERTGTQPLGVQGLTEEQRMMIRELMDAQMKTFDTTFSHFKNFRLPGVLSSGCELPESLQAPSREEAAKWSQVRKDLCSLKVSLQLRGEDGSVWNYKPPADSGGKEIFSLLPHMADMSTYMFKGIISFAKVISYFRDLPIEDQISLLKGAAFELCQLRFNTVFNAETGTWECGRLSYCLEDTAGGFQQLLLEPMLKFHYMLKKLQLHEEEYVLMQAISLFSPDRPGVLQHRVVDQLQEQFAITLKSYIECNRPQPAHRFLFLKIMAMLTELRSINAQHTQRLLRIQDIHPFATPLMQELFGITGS

[20] = biological target: Cytochrome P450 3A5 (Homo sapiens, UniProt P20815); experiment: Inhibition of CYP3A5 (unknown origin) by time dependent inhibition assay; assay type: ADME
[21] = biological target: T4, Cytochrome P450 2C8 (Homo sapiens, UniProt P10632); experiment: Inhibition of CYP2C8 (unknown origin) by time dependent inhibition assay; assay type: ADME
T4 sequence (P10632 whole entry): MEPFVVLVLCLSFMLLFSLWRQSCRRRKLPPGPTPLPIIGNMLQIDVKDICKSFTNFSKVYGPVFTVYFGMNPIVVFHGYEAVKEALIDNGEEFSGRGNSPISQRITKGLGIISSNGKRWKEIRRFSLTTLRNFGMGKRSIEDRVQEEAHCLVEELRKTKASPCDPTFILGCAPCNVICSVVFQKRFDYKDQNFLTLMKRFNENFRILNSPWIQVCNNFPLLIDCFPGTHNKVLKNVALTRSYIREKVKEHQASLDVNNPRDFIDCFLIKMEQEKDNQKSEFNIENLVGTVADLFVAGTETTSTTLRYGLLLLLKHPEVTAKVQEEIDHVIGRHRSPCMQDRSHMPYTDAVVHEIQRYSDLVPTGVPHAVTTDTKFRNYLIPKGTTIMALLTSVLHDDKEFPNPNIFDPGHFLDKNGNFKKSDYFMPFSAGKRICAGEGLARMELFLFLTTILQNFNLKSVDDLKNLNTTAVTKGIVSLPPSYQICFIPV

[22] = biological target: Voltage-gated inwardly rectifying potassium channel KCNH2 (Homo sapiens, UniProt Q12809); experiment: Inhibition of hERG; assay type: toxicity
[23] = test system: THP-1; experiment: Inhibition of pyroptosis in PMA-primed human THP-1 cells assessed as release of lactate dehydrogenase
[24] = Cytotoxicity against mouse CT26 cells measured after 72 hrs; assay type: toxicity, cell-based
[25] = AUC (infinity) in Cynomolgus monkey at 5 mg/kg, po by LC-MS analysis; assay type: ADME, organism-based, Macaca fascicularis; conditions: in vivo
[26] = biological target: Cytochrome P450 2D6 (Homo sapiens, UniProt P10635); experiment: Inhibition of CYP2D6 (unknown origin); assay type: ADME
[27] = cells; conditions: Macaca fascicularis, PBMC
Description: Antagonist activity at NLRP3 inflammasome activation in Cynomolgus monkey PBMC assessed as inhibition of LPS-stimulated IL-1beta release pretreated for 1 hr followed by induced with LPS measured after 18 hrs by HTRF analysis

[28] = Oral bioavailability in C57 BL6 mouse at 10 mg/kg administrated through oral gavage by LC-MS analysis; assay type: ADME, organism-based; conditions: in vivo

T2 sequence (P08684 whole entry): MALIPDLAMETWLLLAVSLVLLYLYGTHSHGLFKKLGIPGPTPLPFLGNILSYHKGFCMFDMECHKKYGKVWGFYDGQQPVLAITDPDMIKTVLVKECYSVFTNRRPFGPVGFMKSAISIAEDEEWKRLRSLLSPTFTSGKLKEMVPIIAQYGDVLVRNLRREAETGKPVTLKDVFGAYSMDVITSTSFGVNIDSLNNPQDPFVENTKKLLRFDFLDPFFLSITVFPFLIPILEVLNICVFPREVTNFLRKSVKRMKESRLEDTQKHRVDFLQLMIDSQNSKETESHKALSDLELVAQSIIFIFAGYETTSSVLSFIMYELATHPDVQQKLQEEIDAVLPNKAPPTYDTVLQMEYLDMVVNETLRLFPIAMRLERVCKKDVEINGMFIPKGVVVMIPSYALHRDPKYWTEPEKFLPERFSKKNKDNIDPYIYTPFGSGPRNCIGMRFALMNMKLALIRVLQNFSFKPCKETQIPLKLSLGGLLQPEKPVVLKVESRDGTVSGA
Sequence of Voltage-gated inwardly rectifying potassium channel KCNH2 (Q12809 whole entry): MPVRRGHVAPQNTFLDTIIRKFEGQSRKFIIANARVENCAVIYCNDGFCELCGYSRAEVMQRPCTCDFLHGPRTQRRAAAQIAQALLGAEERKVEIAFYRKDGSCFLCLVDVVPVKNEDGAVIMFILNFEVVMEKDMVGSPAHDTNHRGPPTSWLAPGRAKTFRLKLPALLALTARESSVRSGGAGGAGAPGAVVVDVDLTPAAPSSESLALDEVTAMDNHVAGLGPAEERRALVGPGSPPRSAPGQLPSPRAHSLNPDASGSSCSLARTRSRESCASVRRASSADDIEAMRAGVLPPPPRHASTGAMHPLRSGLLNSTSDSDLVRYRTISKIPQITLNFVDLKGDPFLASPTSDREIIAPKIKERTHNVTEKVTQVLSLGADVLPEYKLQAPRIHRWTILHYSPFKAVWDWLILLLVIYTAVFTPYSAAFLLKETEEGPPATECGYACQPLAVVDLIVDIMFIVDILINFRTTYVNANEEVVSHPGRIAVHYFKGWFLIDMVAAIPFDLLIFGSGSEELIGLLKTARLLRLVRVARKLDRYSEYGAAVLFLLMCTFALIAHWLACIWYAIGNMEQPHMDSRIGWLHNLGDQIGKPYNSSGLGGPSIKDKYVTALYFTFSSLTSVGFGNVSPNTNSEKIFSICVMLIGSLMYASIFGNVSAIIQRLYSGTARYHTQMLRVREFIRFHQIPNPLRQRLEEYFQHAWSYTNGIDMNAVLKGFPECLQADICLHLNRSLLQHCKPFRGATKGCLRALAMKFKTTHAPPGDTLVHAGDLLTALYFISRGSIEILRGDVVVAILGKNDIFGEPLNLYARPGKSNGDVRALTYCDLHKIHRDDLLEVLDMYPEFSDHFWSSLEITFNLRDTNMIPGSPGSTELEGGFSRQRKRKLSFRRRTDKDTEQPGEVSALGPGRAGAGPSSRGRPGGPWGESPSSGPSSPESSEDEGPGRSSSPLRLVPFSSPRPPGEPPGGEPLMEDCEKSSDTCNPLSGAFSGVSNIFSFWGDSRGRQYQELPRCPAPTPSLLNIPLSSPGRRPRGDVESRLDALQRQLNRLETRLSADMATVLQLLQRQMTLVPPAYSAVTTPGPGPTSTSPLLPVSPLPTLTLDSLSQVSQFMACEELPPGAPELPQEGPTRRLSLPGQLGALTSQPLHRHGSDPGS
Sequence of Cytochrome P450 2C19 (P33261 whole entry): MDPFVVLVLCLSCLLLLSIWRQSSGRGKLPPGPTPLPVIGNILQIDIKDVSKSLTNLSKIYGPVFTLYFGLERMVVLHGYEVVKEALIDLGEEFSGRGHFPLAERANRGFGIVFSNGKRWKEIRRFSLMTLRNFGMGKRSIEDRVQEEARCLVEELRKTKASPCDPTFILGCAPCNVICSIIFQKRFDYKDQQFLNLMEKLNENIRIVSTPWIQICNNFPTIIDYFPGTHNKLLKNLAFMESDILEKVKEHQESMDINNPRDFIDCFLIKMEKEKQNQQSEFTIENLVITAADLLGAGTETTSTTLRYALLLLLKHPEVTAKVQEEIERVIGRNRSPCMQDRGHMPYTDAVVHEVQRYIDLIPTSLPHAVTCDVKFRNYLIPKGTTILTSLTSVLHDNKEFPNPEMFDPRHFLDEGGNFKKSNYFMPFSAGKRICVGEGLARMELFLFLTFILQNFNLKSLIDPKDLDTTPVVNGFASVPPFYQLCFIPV
Sequence of Cytochrome P450 3A5 (P20815 whole entry): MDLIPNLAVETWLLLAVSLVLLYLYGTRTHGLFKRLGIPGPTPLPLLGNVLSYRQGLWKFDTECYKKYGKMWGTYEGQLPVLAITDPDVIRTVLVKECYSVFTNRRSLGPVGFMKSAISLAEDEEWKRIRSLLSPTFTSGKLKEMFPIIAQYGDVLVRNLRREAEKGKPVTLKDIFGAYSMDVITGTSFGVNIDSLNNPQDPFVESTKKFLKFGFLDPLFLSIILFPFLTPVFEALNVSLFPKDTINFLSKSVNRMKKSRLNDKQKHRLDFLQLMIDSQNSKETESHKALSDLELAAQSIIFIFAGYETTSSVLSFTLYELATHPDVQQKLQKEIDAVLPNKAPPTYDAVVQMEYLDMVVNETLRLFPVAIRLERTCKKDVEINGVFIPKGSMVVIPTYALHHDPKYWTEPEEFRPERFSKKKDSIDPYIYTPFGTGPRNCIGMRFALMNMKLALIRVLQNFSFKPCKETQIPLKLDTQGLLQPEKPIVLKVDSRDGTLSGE
Sequence of Cytochrome P450 2D6 (P10635 whole entry): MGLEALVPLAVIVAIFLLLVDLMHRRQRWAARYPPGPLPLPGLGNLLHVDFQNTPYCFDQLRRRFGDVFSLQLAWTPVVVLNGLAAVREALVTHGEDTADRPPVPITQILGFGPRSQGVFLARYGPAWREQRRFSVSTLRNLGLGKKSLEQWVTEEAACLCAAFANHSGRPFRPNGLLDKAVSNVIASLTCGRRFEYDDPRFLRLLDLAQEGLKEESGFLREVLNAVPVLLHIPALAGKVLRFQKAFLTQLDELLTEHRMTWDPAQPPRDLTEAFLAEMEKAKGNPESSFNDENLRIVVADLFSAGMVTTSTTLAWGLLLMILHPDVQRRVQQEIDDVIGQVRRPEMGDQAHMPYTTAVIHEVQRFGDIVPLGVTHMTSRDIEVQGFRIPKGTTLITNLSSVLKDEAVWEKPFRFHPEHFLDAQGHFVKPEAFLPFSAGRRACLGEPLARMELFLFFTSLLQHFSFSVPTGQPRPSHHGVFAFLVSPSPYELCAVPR

Structure (SMILES): CC(C)(O)c1ncc([S@](N)(=O)=NC(=O)Nc2c3c(cc4c2CCC4)CCC3)s1
- Cmax [1]: 21500 ng/mL
- IC50 [2]: > 60 µM
- IC50 [3]: > 60 µM
- hepatocyte CLint [4]: 8.4 µL/min/1e6 cells
- bioavailability [5]: 83%
- fraction unbound [6]: 0.009
- TDI [7]: Not_active
- Papp A→B [8]: 8.2 ×10⁻⁶ cm/s
- IC50 ([9]; Mus musculus, C57BL/6): 0.416 µg/mL
- IC90 ([9]; route po): 3.742 µg/mL
- Cmax [10]: 8860 ng/mL
- TDI [11]: Not_active
- hepatocyte CLint [12]: 7.5 µL/min/1e6 cells
- AUC(0-inf) [13]: 261 µg·h/mL
- half-life [14]: 5.2 h
- inhibition [15]: Dose-dependent-effect
- Activity [16]: inactive
- fraction unbound [17]: 0.005
- bioavailability [18]: 97%
- activity at 30 µM [19]: 19%
- TDI [20]: Not_active
- TDI [21]: Not_active
- IC50 [22]: > 30 µM
- IC50 [23]: 0.027 µM
- EC50 at 72 h [24]: > 100 µM
- AUC(0-inf) [25]: 331 µg·h/mL
- IC50 [26]: > 60 µM
- IC50 [27]: 0.0061 µM
- bioavailability [28]: 61%
